# Assay results from paper PMC5431435, “A short artificial antimicrobial peptide shows potential to prevent or treat bone infections” (Scientific Reports, 2017).
# What was measured:
# [1] = system: human primary osteoblast-like cells; test: Scratch assay (cell migration); assay type: cell-based
# Description: (3) The effect of AMP2 on cell migration was assessed. Human primary osteoblast-like cells were seeded into 24-well plates and cultured in cultivation media. After reaching confluence, medium was removed and a cross scratch was made using a 10 µl pipette tip using a modified protocol. […] Using ImageJ software (version 1.4.8.; https://imagej.nih.gov/ij/) the diameter of the scratch was measured and the closure over time calculated (n = 3).
# S. aureus biofilm = test: Biofilm assay by microcalorimetry and plating (MBCB); assay type: cell-based, Staphylococcus aureus; details: for inhibition of the biofilm compared to the growth control: MH++, n = 6
# Description: To confirm MIC of the AMP2 by isothermal microcalorimetry, three different bouillons were tested: Mueller-Hinton II bouillon with adjusted cations (MH^++; BBL, Germany), Mueller-Hinton bouillon with low cations (MH^+; with 3–4 mg/l Ca^2+ and 5–6 mg/l Mg^2+; Oxoid, Germany) and Mueller-Hinton bouillon without cations (MH^−; Merck, Germany). AMP2 concentrations of 2–33 µg/ml were tested with the three different bouillons and gentamicin concentrations of 0.125–2 µg/ml were analyzed with MH^++. Staphylococcus aureus (ATCC 29213, 300 µl with 10^5 cfu/ml) was added to each microcalorimetry glass ampoule (Waters; Germany) containing 3.7 ml of AMP or gentamicin solution of (n = 3). The ampoules were hermetically sealed and heat flow (W) was measured for 24 hours in the calorimeter TAM III (TA Instruments, USA). For the biofilm assay, S. aureus biofilm was grown on glass beads (4 mm diameter, 60 µm pores; ROBU Glasfilter-Geräte, Germany) in MH^++ bouillon at 37 °C in an aerobe atmosphere for 24 hours. After washing with sodium chloride, beads were incubated with AMP2 (133, 267, 533 µg/ml) or daptomycin (128 µg/ml) in MH^++ bouillon for another 24 hours at 37 °C. Beads were washed again and added to the glass ampoule with fresh MH^++ bouillon. The total heat (J) was measured for 48 hours in the calorimeter. A concentration, which inhibits minimum 90% of biofilm, can be defined as the minimal biofilm inhibitory concentration (MICB). All samples were tested with n = 6.
# Furthermore, the MBC for biofilms (MBCB) where 99.9% of all bacteria are killed was determined. After measurement, bouillon and glass beads were plated on CA plates and incubated for 24 hours at 37 °C in an aerobe atmosphere.
# [2] = system: human primary osteoblast-like cells; details: differentiation medium with 17 or 133 µg/ml AMP2, days 0, 7, 14, 21
# Description: Confluent cells were cultured for 21 days in cultivation medium (CM), differentiation medium (DM: D/H + 10% FCS + 1% P/S + 0.5 mM L-Asc + 10 mM β-Glyc + 100 nM dexamethasone + 1.5 mM calcium chloride) and DM with a low (17 µg/ml) and a high (133 µg/ml) AMP2 concentration. Medium was changed every 3–4 days and fresh AMP was added by each change. Cells from two donors were used and the experiments were done in triplicate (n = 6).
# Cells were incubated with 0.13% w/v 4-nitrophenyl phosphate disodium salt hexahydrate (Sigma-Aldrich, Germany) dissolved in 0.1 M AP-buffer (50 mM glycine, 100 mM Tris-Base, 1 mM MgCl2 in dH2O) at pH 10.5 for 30 min at 37 °C and absorbance was measured at 405 nm wavelength. […]
# Cells were fixed with 3.7% v/v formalin for 10 min at RT and incubated with 0.5% w/v alizarin red (Sigma-Aldrich, Germany) in dH2O for 10 min at RT. Quantification was done by removing staining with 5% w/v SDS in 5 mM HCl and measuring absorbance at 570 nm.
# RNA was isolated after 0, 7, 14 and 21 days in culture using the NucleoSpin RNA Kit (Macherey Nagel, Germany). […] For all primers, amplification efficiencies were analyzed and mean normalized expression (MNE) ratios were calculated using the ΔΔCt method with efficiency correction and normalization to the control (d0 of differentiation) and 18 S ribosomal RNA used as a reference gene.
sequence,measurement,setting,value
KRRWRIWLV [AMP2],migration after 24 hours,[1]; 67 µg/ml AMP2,reduced the migration of cells
same,gap size after 48 hours,"[1]; 67 µg/ml AMP2, 0.1% FCS, gap at 0 hours = 100%",71%
same,migration after 24 hours,[1]; 133 µg/ml AMP2 (data not shown),no migration was observed
same,gap after 48 hours,"[1]; 133 µg/ml AMP2, 0.1% FCS",still complete open
same,free-area after 24 hours,"[1]; 4–33 µg/ml AMP2 (range also covers positive control and CM without AMP2), 0.1% FCS, gap at 0 hours = 100%",50–66%
same,cell-free area after 48 hours,"[1]; AMP2 concentrations up to 33 µg/ml, 0.1% FCS, gap at 0 hours = 100%",12–28%
same,inhibition of the biofilm compared to the growth control,"S. aureus biofilm; 133 µg/ml AMP2, total heat after 48 hours",13 ± 4%
same,"inhibition of the biofilm, single samples","S. aureus biofilm; 267 µg/ml AMP2, five of the six samples (the sixth completely killed the bacteria)",18–38%
same,inhibition of the biofilm compared to the growth control,"S. aureus biofilm; 267 µg/ml AMP2, total heat after 48 hours",35 ± 29%
same,killing of the biofilm (MBCB determination by plating samples and glass beads),"S. aureus biofilm; 533 µg/ml AMP2, all samples, no growth on agar plates",totally killed
same,inhibition of the biofilm compared to the growth control,"S. aureus biofilm; 533 µg/ml AMP2, total heat after 48 hours",97 ± 1%
same,"effect on the osteogenic differentiation (expression of RUNX2, AP, Col1)",[2],no effect
